Reference: patent US20260083708A1, “IL-17 MODULATORS AND USES THEREOF” (NNOCARE PHARMA INC., priority 2024, published 2026)

How the values were obtained:
[1] = molecular target: T1, IL-17AA and IL-17RA (Homo sapiens, UniProt Q16552); assay: Competitive inhibition of human IL-17AA and IL-17RA binding (HTRF); conditions: recombinant IL-17AA (His-tag) and IL-17RA (hFc-tag); read-out: IC50 for Inhibiting IL-AA/IL-RA Binding
T1 construct: purchased Sino Biological 12047-H07B (IL-17AA); 10895-H02H (IL-17RA)
T1 sequence (Q16552 24-155): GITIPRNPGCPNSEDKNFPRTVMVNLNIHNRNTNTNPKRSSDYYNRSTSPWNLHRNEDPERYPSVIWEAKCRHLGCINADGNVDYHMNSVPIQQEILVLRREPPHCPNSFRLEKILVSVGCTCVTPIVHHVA
Method in brief: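 His-IL-17AA (1 nM) premixed 1 h with anti-His-Tb (0.4 nM), and Fc-IL-17RA (1 nM) with anti-IgG-d2 (1 μg/mL); these are pre-mix levels. Compounds, diluted from 10 μM, preincubated 2 h RT with IL-17AA mix; IL-17RA mix then added, 20 min. 665/615 ratio vs no-compound and no-IL-17AA controls; IC50 by 4-parameter fit.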

[2] = test system: IL-17AA-induced IL-17 signaling pathway; assay: Inhibition of IL-17AA-induced IL-17 signaling pathway in HEK-Blue IL-17 reporter cells (SEAP); type: cell-based; conditions: Homo sapiens; HEK-Blue IL-17 cells, IL-17AA 2.5 ng/mL, 20 hours; read-out: IC50 for Inhibiting IL-AA Signaling
Method in brief: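 HEK-Blue IL-17 cells (HEK293 expressing human IL-17RA/RC, ACT1 and NF-κB/AP-1-driven SEAP), 10,000/well, pre-incubated with compound (serial dilution from 10 μM) for 1 h at 37 °C, then stimulated with IL-17AA at 2.5 ng/mL final for 20 h. SEAP in supernatant read with Quanti-Blue at 620 nm; IC50 by 4-parameter fit.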

[3] = test system: IL-17AF-induced IL-17 signaling pathway; assay: Inhibition of IL-17AF-induced IL-17 signaling pathway; type: cell-based; conditions: Homo sapiens; IL-17AF used instead of IL-17AA; read-out: IC50 for Inhibiting IL-AF Signaling
Method in brief: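 HEK293-derived HEK-Blue IL-17 cells (IL-17RA/RC, ACT1, NF-κB/AP-1-driven SEAP) preincubated 1 hour at 37° C with serially diluted compound from 10 μM, then stimulated with IL-17AF for 20 hours. SEAP read colorimetrically at 620 nm; IC50 from 4-parameter fit of % inhibition.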

[4] = test system: rat collagen induced arthritis (CIA) model; assay: In vivo efficacy study in rat collagen induced arthritis (CIA) model; conditions: female Lewis rats, 20 mg/kg PO once a day, 14 days
Method: Example 45. In Vivo Efficacy Study in Rat Collagen Induced Arthritis (CIA) Model
Bovine type II collagen solution (Chondrex) was emulsified with an equal volume of incomplete Freund's adjuvant (IFA, Sigma) to achieve an emulsion with a collagen concentration of 1 mg/mL. Female Lewis rats were immunized with the emulsion (200 μL per rat) through subcutaneous injection at the base of tail. After seven days from the initial immunization, rats received a booster injection of the emulsion (100 μL per rat). Each paw of the rat was evaluated and scored on a 0-4 scale based on arthritis severity, and the arthritis score of each rat was the sum of scores from four paws. When the arthritis scores reached 2-3, rats were randomized into four groups and dosed once a day via oral gavage (PO) with vehicle, compounds 35, 49 and 66 for 14 days, respectively. The arthritis score was assessed every other day. Efficacy was calculated by [1−(T14−T0)/(V14−V0)]×100%, where T14 and V14 are the average arthritis scores of the treatment group and the vehicle group on Day 14 of measurement, respectively, while T0 and V0 are the average arthritis scores of the treatment group and the vehicle group on Day 0, respectively. Statistical significance of difference in arthritis scores between the treatment and vehicle groups was analyzed using one-way ANOVA followed by Dunnett's test, and P<0.05 was considered statistically significant.

SMILES: CCC(=O)N[C@@H](c1ncnn1CC1CC1)[C@@H](C)c1ccc(NC(=O)[C@@H](NC(=O)c2nonc2C)C(C2CC2)C2CC2)c(F)c1 [Compound 66, N-((S)-1,1-dicyclopropyl-3-((4-((1R,2S)-1-(1-(cyclopropylmethyl)-1H-1,2,4-triazol-5-yl)-1-propionamidopropan-2-yl)-2-fluorophenyl)amino)-3-oxopropan-2-yl)-4-methyl-1,2,5-oxadiazole-3-carboxamide]
- IC50 [1]: 1.1 nM
- IC50 [2]: 3.3 nM
- IC50 [3]: 8.4 nM
- suppression of arthritis disease progression (arthritis score) [4]: completely suppressed arthritis disease progression
